Tests used:
[1] = target: GLP-1R (Homo sapiens, UniProt P43220); experiment: ebBRET pathway activation (effector membrane translocation, 15 pathways) at the plasma membrane (rGFP-CAAX); format: cell-based; details: plasma membrane rGFP-CAAX, HEK293, agonist incubation 0 min, normalized to the highest responding drug, F test P < 0.00625, n=3-6
[2] = Adverse drug event analysis (FAERS, log likelihood ratio); details: for proportion, Abdominal pain: ADR_TERM Abdominal pain; for proportion, Eructation: ADR_TERM Eructation; for proportion, Nausea: ADR_TERM Nausea; for proportion, Pancreatic disease: ADR_TERM Pancreatic disease; for proportion, Vomiting: ADR_TERM Vomiting; for logLR: Fig. 6d
[3] = ref [56], [57], cited from earlier work
[4] = Supplementary Fig. 21, first group
[5] = Supplementary Fig. 21, fourth group (r25-r28)
[6] = Supplementary Fig. 21, third group (r21-r24)
[7] = SOC Endocrine disorders, FAERS via Open Targets
[8] = SOC Gastrointestinal disorders, FAERS via Open Targets
[9] = SOC Investigations, FAERS via Open Targets
[10] = SOC Metabolism and nutrition disorders, FAERS via Open Targets

Sequence of GLP-1R (P43220 24-463): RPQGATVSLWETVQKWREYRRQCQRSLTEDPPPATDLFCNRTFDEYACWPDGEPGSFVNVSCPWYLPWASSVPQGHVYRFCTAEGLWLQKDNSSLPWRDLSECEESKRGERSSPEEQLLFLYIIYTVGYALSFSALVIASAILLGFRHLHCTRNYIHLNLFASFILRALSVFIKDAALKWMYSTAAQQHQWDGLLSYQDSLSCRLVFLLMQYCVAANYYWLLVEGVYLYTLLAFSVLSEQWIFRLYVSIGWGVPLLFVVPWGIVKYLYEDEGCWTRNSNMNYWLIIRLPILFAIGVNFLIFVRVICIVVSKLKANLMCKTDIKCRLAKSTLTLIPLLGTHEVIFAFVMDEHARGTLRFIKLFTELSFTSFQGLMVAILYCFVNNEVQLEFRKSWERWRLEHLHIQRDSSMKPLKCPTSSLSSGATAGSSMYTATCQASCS

Which results are given for `CC[C@H](C)[C@H](NC(=O)[C@H](Cc1ccccc1)NC(=O)[C@H](CCC(=O)O)NC(=O)[C@H](CCCCN)NC(=O)[C@H](C)NC(=O)[C@H](C)NC(=O)[C@H](CCC(N)=O)NC(=O)CNC(=O)[C@H](CCC(=O)O)NC(=O)[C@H](CC(C)C)NC(=O)[C@H](Cc1ccc(O)cc1)NC(=O)[C@H](CO)NC(=O)[C@H](CO)NC(=O)[C@@H](NC(=O)[C@H](CC(=O)O)NC(=O)[C@H](CO)NC(=O)[C@@H](NC(=O)[C@H](Cc1ccccc1)NC(=O)[C@@H](NC(=O)CNC(=O)[C@H](CCC(=O)O)NC(=O)[C@H](C)NC(=O)[C@H](Cc1c[nH]cn1)NC(=O)[C@H](CCCNC(=N)N)NC(=O)[C@H](CCC(=O)O)NC(=O)[C@H](Cc1ccccc1)NC(=O)[C@H](CCC(=O)O)NC(=O)[C@H](CC(=O)O)NC(=O)[C@@H](N)Cc1c[nH]cn1)[C@@H](C)O)[C@@H](C)O)C(C)C)C(=O)N[C@@H](C)C(=O)N[C@@H](Cc1c[nH]c2ccccc12)C(=O)N[C@@H](CC(C)C)C(=O)N[C@H](C(=O)N[C@@H](CCCCN)C(=O)NCC(=O)N[C@@H](CCCNC(=N)N)C(=O)NCC(=O)O)C(C)C` [GLP-1 (1-37)]?
Efficacy (normalized), GRK2/Gβγ ([1]; GRK2-D110A-RlucII): 0; Efficacy (normalized), Gα13 ([1]; PDZRhoGEF-RlucII): 0; Efficacy (normalized), Gαi1 ([1]; Rap1Gap-RlucII): 0; Efficacy (normalized), Gαi2 ([1]; Rap1Gap-RlucII): 0; Efficacy (normalized), Gαi3 ([1]; Rap1Gap-RlucII): 0; Efficacy (normalized), GαoA ([1]; Rap1Gap-RlucII): 0; Efficacy (normalized), GαoB ([1]; Rap1Gap-RlucII): 0; Efficacy (normalized), Gαz ([1]; Rap1Gap-RlucII): 0; Efficacy (normalized), Gαs ([1]; Rluc8-mGs): 0; Efficacy (normalized), Gα11 ([1]; p63RhoGEF-RlucII): 0; Efficacy (normalized), Gα14 ([1]; p63RhoGEF-RlucII): 0; Efficacy (normalized), Gα15 ([1]; p63RhoGEF-RlucII): 0; Efficacy (normalized), Gαq ([1]; p63RhoGEF-RlucII): 0; Efficacy (normalized), βARR2 ([1]; β-arrestin-2-RlucII): 0

Which results are given for `CCCCCCCCCCCCCCCC(=O)N[C@@H](CCC(=O)NCCCC[C@H](NC(=O)[C@H](C)NC(=O)[C@H](C)NC(=O)[C@H](CCC(N)=O)NC(=O)CNC(=O)[C@H](CCC(=O)O)NC(=O)[C@H](CC(C)C)NC(=O)[C@H](Cc1ccc(O)cc1)NC(=O)[C@H](CO)NC(=O)[C@H](CO)NC(=O)[C@@H](NC(=O)[C@H](CC(=O)O)NC(=O)[C@H](CO)NC(=O)[C@@H](NC(=O)[C@H](Cc1ccccc1)NC(=O)[C@@H](NC(=O)CNC(=O)[C@H](CCC(=O)O)NC(=O)[C@H](C)NC(=O)[C@@H](N)Cc1cnc[nH]1)[C@@H](C)O)[C@@H](C)O)C(C)C)C(=O)N[C@@H](CCC(=O)O)C(=O)N[C@@H](Cc1ccccc1)C(=O)N[C@H](C(=O)N[C@@H](C)C(=O)N[C@@H](Cc1c[nH]c2ccccc12)C(=O)N[C@@H](CC(C)C)C(=O)N[C@H](C(=O)N[C@@H](CCCNC(=N)N)C(=O)NCC(=O)N[C@@H](CCCNC(=N)N)C(=O)NCC(=O)O)C(C)C)[C@@H](C)CC)C(=O)O` [Liraglutide]?
proportion, Abdominal pain ([2]; Supplementary Fig. 21): 0.02341; proportion, Adenocarcinoma pancreas ([2]; Supplementary Fig. 21, ADR_TERM Adenocarcinoma pancreas): 0.01752; proportion, Eructation ([2]; Supplementary Fig. 21): 0.03019; proportion, Nausea ([2]; Supplementary Fig. 21): 0.07705; proportion, Pancreatic disease [2, 4]: 0.08817; proportion, Pancreatic disease [2, 5]: 0.1539; proportion, Pancreatic disease ([2]; Supplementary Fig. 21, second group (r20)): 0.02656; proportion, Pancreatic disease [2, 6]: 0.5446; proportion, Vomiting ([2]; Supplementary Fig. 21): 0.03854

What does the source list for `CC[C@H](C)[C@H](NC(=O)[C@H](Cc1ccccc1)NC(=O)[C@H](CCC(=O)O)NC(=O)[C@H](CCCCNC(=O)COCCOCCNC(=O)COCCOCCNC(=O)CC[C@H](NC(=O)CCCCCCCCCCCCCCCCC(=O)O)C(=O)O)NC(=O)[C@H](C)NC(=O)[C@H](C)NC(=O)[C@H](CCC(N)=O)NC(=O)CNC(=O)[C@H](CCC(=O)O)NC(=O)[C@H](CC(C)C)NC(=O)[C@H](Cc1ccc(O)cc1)NC(=O)[C@H](CO)NC(=O)[C@H](CO)NC(=O)[C@@H](NC(=O)[C@H](CC(=O)O)NC(=O)[C@H](CO)NC(=O)[C@@H](NC(=O)[C@H](Cc1ccccc1)NC(=O)[C@@H](NC(=O)CNC(=O)[C@H](CCC(=O)O)NC(=O)C(C)(C)NC(=O)[C@@H](N)Cc1cnc[nH]1)[C@@H](C)O)[C@@H](C)O)C(C)C)C(=O)N[C@@H](C)C(=O)N[C@@H](Cc1c[nH]c2ccccc12)C(=O)N[C@@H](CC(C)C)C(=O)N[C@H](C(=O)N[C@@H](CCCNC(=N)N)C(=O)NCC(=O)N[C@@H](CCCNC(=N)N)C(=O)NCC(=O)O)C(C)C` [Semaglutide]?
pancreatitis reports, in words ([3]; FAERS): lower incidence of pancreatitis; logLR, diabetic ketoacidosis [3, 7]: 101.6; logLR, diabetic retinopathy [3, 7]: 83.01; logLR, abdominal pain [3, 8]: 80.54; logLR, diarrhoea [3, 8]: 91.4; logLR, eructation [3, 8]: 76.22; logLR, gastrointestinal disorder [3, 8]: 66.93; logLR, nausea [3, 8]: 351; logLR, pancreatic carcinoma [3, 8]: 37.15; logLR, pancreatitis [3, 8]: 599.6; logLR, pancreatitis acute [3, 8]: 54.4; logLR, vomiting [3, 8]: 332.8; logLR, decreased appetite ([3]; SOC General disorders and administration site conditions, FAERS via Open Targets): 42.19; logLR, blood glucose increased [3, 9]: 43.39; logLR, glycosylated haemoglobin increased [3, 9]: 60.95; logLR, heart sounds [3, 9]: 49.27; logLR, lipase increased [3, 9]: 49.97; logLR, weight decreased [3, 9]: 122.9; logLR, dehydration [3, 10]: 53.42; logLR, euglycaemic diabetic ketoacidosis [3, 10]: 71.84; logLR, retinopathy [3, 10]: 95.38; logLR, acute kidney injury ([3]; SOC Renal and urinary disorders, FAERS via Open Targets): 39.07; logLR, prolonged expiration ([3]; SOC Respiratory disorders, FAERS via Open Targets): 36.95; logLR ([2]; Endocrine disorders: diabetic ketoacidosis): 101.6; logLR ([2]; Endocrine disorders: diabetic retinopathy): 83.01; logLR ([2]; Gastrointestinal disorders: abdominal pain): 80.54; logLR ([2]; Gastrointestinal disorders: diarrhoea): 91.4; logLR ([2]; Gastrointestinal disorders: eructation): 76.22; logLR ([2]; Gastrointestinal disorders: gastrointestinal disorder): 66.93; logLR ([2]; Gastrointestinal disorders: nausea): 351; logLR ([2]; Gastrointestinal disorders: pancreatic carcinoma): 37.15; logLR ([2]; Gastrointestinal disorders: pancreatitis): 599.6; logLR ([2]; Gastrointestinal disorders: pancreatitis acute): 54.4; logLR ([2]; Gastrointestinal disorders: vomiting): 332.8; logLR ([2]; General disorders and administration site conditions: decreased appetite): 42.19; logLR ([2]; Investigations: blood glucose increased): 43.39; logLR ([2]; Investigations: glycosylated haemoglobin increased): 60.95; logLR ([2]; Investigations: heart sounds): 49.27; logLR ([2]; Investigations: lipase increased): 49.97; logLR ([2]; Investigations: weight decreased): 122.9; logLR ([2]; Metabolism and nutrition disorders: dehydration): 53.42; logLR ([2]; Metabolism and nutrition disorders: euglycaemic diabetic ketoacidosis): 71.84; logLR ([2]; Metabolism and nutrition disorders: retinopathy): 95.38; logLR ([2]; Renal and urinary disorders: acute kidney injury): 39.07; logLR ([2]; Respiratory disorders: prolonged expiration): 36.95; proportion, Abdominal pain ([2]; Supplementary Fig. 21): 0.04766; proportion, Diarrhoea ([2]; Supplementary Fig. 21, ADR_TERM Diarrhoea): 0.05408; proportion, Eructation ([2]; Supplementary Fig. 21): 0.0451; proportion, Gastrointestinal disorder ([2]; Supplementary Fig. 21, ADR_TERM Gastrointestinal disorder): 0.03961; proportion, Nausea ([2]; Supplementary Fig. 21): 0.2077; proportion, Pancreatic disease [2, 4]: 0.02198; proportion, Pancreatic disease [2, 5]: 0.03219; proportion, Pancreatic disease [2, 6]: 0.3548; proportion, Vomiting ([2]; Supplementary Fig. 21): 0.1969

From article PMC10562414, “GLP-1R signaling neighborhoods associate with the susceptibility to adverse drug reactions of incretin mimetics” (Nature Communications, 2023)
